Test system: panel of cancer cell lines
Test: Cell viability (CellTiter-Glo) dose-response across cancer cell line panel;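 for EC50: after 72 h compound incubation with CellTiter-Glo ATP readout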
Type: cell-based, human
Settings: for EC50: Homo sapiens
Excerpt: Next, we explored the effect of CSN5 inhibition on the viability of cancer cells. To obtain a comprehensive picture, we generated dose–response curves with a CSN5 inhibitor across more than 500 cancer cell lines in a previously described standardized setting[47] (Supplementary Data 1).
A standardized CellTiter-Glo Assay (Promega #G7570) based on the quantification of ATP was applied according to the manufacturer's protocol to measure the amount of viable cells in culture. In brief, cells were seeded into 384-well plates at optimal density for each cell line. After 4 h, compounds were added at different concentrations in growth medium and incubated for another 72 h in a humidifying chamber at 37 °C and 5% CO2. […] EC50 values were calculated from the plot of percentage of inhibition versus inhibitor concentration using the nonlinear regression analysis software Origin 7.5SR6 (OriginLab Corp.).

For CC(C)C[C@H](NC(=O)[C@H](Cc1ccccc1)NC(=O)c1cnccn1)B(O)O [Bortezomib], the AMAX (22Rv1) was -94.313, the AMAX (59M) was -95.8554 and the AMAX (769-P) was -95.8011. It also gave an AMAX (786-O) of -95.6334, an AMAX (A4/Fuk) of -96.8168 and an AMAX (A101D) of -96.1689. The AMAX (BV-173) was -96.2276, the AMAX (CAL-54) was -95.8702 and the AMAX (CAL-78) was -96.6244. For the same compound, the AMAX (CAS-1) was -94.9696, the AMAX (CMK-11-5) was -95.7224 and the AMAX (CML-T1) was -97.037. For the same compound, the AMAX (COLO 668) was -97.3658, the AMAX (COR-L88) was -87.7017 and the AMAX (COR-L279) was -96.4332. For the same compound, the AMAX (COV318) was -92.9911, the AMAX (COV504) was -89.7599 and the AMAX (DK-MG) was -95.0625. The AMAX (DMS 273) was -96.4842, the AMAX (DOHH-2) was -97.4407 and the AMAX (EM-2) was -96.8249. The AMAX (GCIY) was -97.1531, the AMAX (GR-M) was -97.3342 and the AMAX (HEC-6) was -96.6882. The AMAX (HEC-50B) was -86.5583, the AMAX (HEC-151) was -96.6048 and the AMAX (HEC-265) was -95.5903. For the same compound, the AMAX (HGC-27) was -96.7322, the AMAX (HLC-1) was -96.4119 and the AMAX (HMC-1-8) was -96.1255. It also gave an AMAX (HTK-) of -96.3221, an EC50 (8-MG-BA, cell line 8-MG-BA) of 18.9 nM and an EC50 (22Rv1, 22Rv1) of 14.7 nM. For the same compound, the EC50 (59M) was 13.5 nM, the EC50 697 was 9 nM and the EC50 (769-P) was 8.84 nM. The EC50 (786-0, 786-O) was 8.79 nM, the EC50 (1321-N1, 1321N1) was 12 nM and the EC50 (8305C) was 7.18 nM. For the same compound, the EC50 (23132/87) was 7.39 nM, the EC50 (A4/Fuk) was 2.23 nM and the EC50 (A101D) was 3.29 nM. For the same compound, the EC50 (A 172, A172) was 8.05 nM, the EC50 (A204, A-204) was 5.28 nM and the EC50 (A253, A-253) was 9.94 nM. It also gave an EC50 (A549, A549) of 30.8 nM, an EC50 (A673, A-673) of 5.83 nM and an EC50 (A2058, A2058) of 19.4 nM. It also gave an EC50 (A2780, A2780) of 10.7 nM, an EC50 (A-375, A-375) of 12.1 nM and an EC50 (ABC-1, ABC-1) of 3.02 nM. It also gave an EC50 (ACC-MESO-1, ACC-MESO-1) of 23.6 nM, an EC50 (ACHN) of 7.43 nM and an EC50 (AMO1, AMO-1) of 2.18 nM. It also gave an EC50 (AN3-CA, cell line AN3 CA) of 15.5 nM, an EC50 (AU565, AU565) of 6.2 nM and an EC50 (BFTC-909, BFTC-909) of 20.9 nM. For the same compound, the EC50 (BHY) was 7.83 nM, the EC50 (BICR 6) was 18.4 nM and the EC50 (BICR 16) was 38.8 nM. It also gave an EC50 (BICR 22) of 12.3 nM, an EC50 (BL-41, BL-41) of 1.54 nM and an EC50 (BT-20, BT-20) of 26.8 nM. The EC50 (BT-549, BT-549) was 5.76 nM, the EC50 (BV-173, BV-173) was 8.13 nM and the EC50 (BXPC-3, BxPC-3) was 15.1 nM. It also gave an EC50 (C32, C32) of 13 nM, an EC50 (CAKI-1, Caki-1) of 12 nM and an EC50 (CAKI-2, cell line Caki-2) of 22.8 nM. For the same compound, the EC50 (CAL-29) was 16.3 nM, the EC50 (CAL-51, CAL-51) was 17.9 nM and the EC50 (CAL-54, CAL-54) was 9.06 nM. For the same compound, the EC50 (CAL-78) was 7.82 nM, the EC50 (CAL-120, CAL-120) was 7.23 nM and the EC50 (CAMA-1, CAMA-1) was 8.61 nM. The EC50 (CAPAN-1, Capan-1) was 9.26 nM, the EC50 (CAS-1) was 16.6 nM and the EC50 (CCK-81) was 9.52 nM. The EC50 (CCRF-CEM) was 3.12 nM, the EC50 (CFPAC-1, CFPAC-1) was 6.34 nM and the EC50 (CHL-1, CHL-1) was 9.51 nM. The EC50 (CHP-212, cell line CHP-212) was 5.04 nM, the EC50 (CMK) was 3.98 nM and the EC50 (CMK-11-5, CMK-11-5) was 6.27 nM. The EC50 (CML-T1, CML-T1) was 3.65 nM, the EC50 (COLO 205, COLO 205) was 35.7 nM and the EC50 (COLO 320, COLO-320) was 19 nM. The EC50 (COLO 699, COLO-699) was 9.17 nM, the EC50 (COLO 704, COLO-704) was 5.98 nM and the EC50 (COLO 775) was 5.24 nM. For the same compound, the EC50 (COLO 792) was 5.11 nM, the EC50 (COLO-668, COLO 668) was 13.2 nM and the EC50 (COLO-680N) was 12.3 nM. The EC50 (COLO-741, COLO 741) was 11 nM, the EC50 (COLO-800, cell line COLO-800) was 10.1 nM and the EC50 (COLO-829, COLO 829) was 16.6 nM. For the same compound, the EC50 (COR-L23, cell line COR-L23) was 17.8 nM, the EC50 (COR-L47, COR-L47) was 9.05 nM and the EC50 (COR-L88, COR-L88) was 29.3 nM. It also gave an EC50 (COR-L279, COR-L279) of 7.34 nM, an EC50 (COV318, COV318) of 6.86 nM and an EC50 (COV504, COV504) of 7.72 nM. For the same compound, the EC50 (COV644) was 6.9 nM, the EC50 (Calu-1, Calu-1) was 17.6 nM and the EC50 (Calu-3, Calu-3) was 4.34 nM. The EC50 (Calu-6, Calu-6) was 17.8 nM, the EC50 (Caov-3, Caov-3) was 7.49 nM and the EC50 (Ci-1, CI-1) was 4.61 nM. The EC50 (DAN-G) was 8.14 nM, the EC50 (DB) was 3.38 nM and the EC50 (DBTRG-05MG, cell line DBTRG-05MG) was 34.7 nM. The EC50 (DK-MG) was 5.7 nM, the EC50 (DLD-1, DLD-1) was 6.51 nM and the EC50 (DMS-79, cell line DMS 79) was 13.6 nM. For the same compound, the EC50 (DMS-114, DMS 114) was 14 nM, the EC50 (DMS-273, DMS 273) was 6.64 nM and the EC50 (DOHH-2, DOHH-2) was 4.61 nM. It also gave an EC50 (DU-145, DU 145) of 17.5 nM, an EC50 (DU-4475, DU4475) of 5.05 nM and an EC50 (DV-90, DV-90) of 22.4 nM. It also gave an EC50 (Daoy) of 6.56 nM, an EC50 (Detroit 562, cell line Detroit 562) of 11.4 nM and an EC50 (EBC-1, EBC-1) of 8.25 nM. The EC50 (EFM-19, EFM-19) was 22.5 nM, the EC50 (EFM-192A) was 25.5 nM and the EC50 (EM-2, EM-2) was 1.63 nM. For the same compound, the EC50 (EN) was 15 nM, the EC50 (EOL1, EOL-1) was 6.8 nM and the EC50 (ES-2, ES-2) was 10.4 nM. It also gave an EC50 (ESS-1, ESS-1) of 8.62 nM, an EC50 (FU-OV-1) of 12.5 nM and an EC50 (FaDu, cell line FaDu) of 16.5 nM. For the same compound, the EC50 (G-361, G-361) was 2.83 nM, the EC50 (G-401, G-401) was 8.69 nM and the EC50 (G-402, G-402) was 5.03 nM. The EC50 (GA-10, cell line GA-10) was 15.5 nM, the EC50 (GAMG, cell line GAMG) was 17.7 nM and the EC50 (GCIY) was 6.77 nM. For the same compound, the EC50 (GMS-10, cell line GMS-10) was 11.2 nM, the EC50 (GOS-3) was 6.46 nM and the EC50 (GP2d) was 14.7 nM. For the same compound, the EC50 (GR-M) was 7.08 nM, the EC50 (Granta-519, GRANTA-519) was 3.79 nM and the EC50 (HARA) was 11.9 nM. It also gave an EC50 (HCC15, HCC-15) of 23.1 nM, an EC50 (HCC38, HCC38) of 3.99 nM and an EC50 (HCC44, HCC-44) of 19.7 nM. For the same compound, the EC50 (HCC70, HCC70) was 7.14 nM, the EC50 (HCC95, HCC-95) was 14.1 nM and the EC50 (HCC366, HCC-366) was 11.1 nM. The EC50 (HCC827, HCC827) was 8.42 nM, the EC50 (HCC1143, HCC1143) was 15.1 nM and the EC50 (HCC1171, HCC-1171) was 27.1 nM. For the same compound, the EC50 (HCC1187, HCC1187) was 6.22 nM, the EC50 (HCC1395, HCC1395) was 17.5 nM and the EC50 (HCC1419, HCC1419) was 28.6 nM. The EC50 (HCC1428, HCC1428) was 396 nM.

Reference: publication PMC5078989, “Targeted inhibition of the COP9 signalosome for treatment of cancer” (Nature Communications, 2016)
